Test results reported in patent US10105414B2, “Peptides derived from RS1 which down-regulate glucose absorption after a glucose rich meal and increase insulin sensitivity” (Julius-Maximilians-Universität Würzburg, priority 2014, dated 2018).
Where two headings read alike, the source gives them in different places.

Columns and labels:
mSGLT1 [1] = test system: mSGLT1
Method: (§1) Standardised t areas of human small intestinal mucosa (FIGS. 13,19) or 1 cm segments of everted mouse small intestine (FIGS. 14,15,20) were washed three times at 37° C. with Krebs-Ringer buffer containing 5 mM D-glucose and incubated for 30 min at 37° C. in Krebs-Ringer buffer containing 5 mM D-glucose plus different concentrations of tripeptides. Thereafter the tissue was washed three times at 0° C. in Krebs-Ringer buffer without glucose and uptake measurements were performed.
(§2) For measurement of SGLT1 mediated glucose uptake, the everted segments of mouse small intestine or defined areas of human mucosa were incubated for 2 min at 37° C. with Krebs-Ringer buffer containing 10 μM [^14C]AMG with or without 0.2 mM phlorizin. Uptake was stopped by transferring the segments into ice cold Krebs-Ringer buffer containing 0.2 mM phlorizin for 5 min. After washing with ice cold Krebs-Ringer buffer the intestinal segments or pieces of human mucosa were dissolved in 0.5 ml Soluence-350) (Perkin Elmer Inc. Waltham Mass., USA). Radioactivity was analysed by liquid scintillation counting. Phlorizin inhibited AMG uptake per cm length or per standard area of the mucosa was calculated.
Thereafter the segments were washed with PBS buffer and phlorizin inhibited uptake of 10 μM [^14C]AMG was measured.

hCNT1 = experiment: hCNT1-mediated uridine uptake in Xenopus laevis oocytes after injection of peptides; type: cell-based, human; settings: for uptake of 5 μM [3H]uridine expressed by hCNT1: low intracellular glucose, no AMG injected
Method: (§3) Selected oocytes were injected with 50 nl of water containing cRNAs (2.5 ng of hSGLT1 or 0.5 ng of hCNT1). For expression oocytes were incubated for 2-3 days at 16° C. in modified Barth's solution with gentamycin. Noninjected control oocytes were incubated in parallel.
(§4) Before uptake measurements were started, 50 nl of K-Ori buffer containing peptides, polypeptides, 1 pM of calmodulin stimulated kinase 2 (CK2) inhibitor KN93 (Calbiochem San Diego. Calif.), 3 mM of the omithinedecarboxlase inhibitor difluoromethylornithine DFMO and/or or 100 pmol α-methyl-α-D-glucopyranoside (AMG) were injected and the oocytes were incubated for 1 h at room temperature. Uptake was measured in Ori buffer at room temperature. Measurements in transporter expressing oocytes were corrected for measurements in noninjected oocytes. Uptake of 50 μM [^14C]AMG was measured after 15 min incubation and washing in ice-cold Ori buffer containing 1 mM phlorizin. Uptake of 5 μM [^3H]uridine was measured after 15 min incubation and washing in ice-cold Ori buffer. Oocytes were solubilized in 5% (w/v) SDS and analyzed for radioactivity by scintillation counting.
(§5) For comparison of mean values from 2 groups the Student's t-test for unpaired samples was employed.

ODC [2] = target: T1, ODC (Homo sapiens, UniProt P11926); experiment: Activity of purified ODC (released CO2); type: biochemical; settings: 100 μM tripeptide, 80 ng purified ODC, 1 h, 37° C.
T1 sequence (P11926 1-461): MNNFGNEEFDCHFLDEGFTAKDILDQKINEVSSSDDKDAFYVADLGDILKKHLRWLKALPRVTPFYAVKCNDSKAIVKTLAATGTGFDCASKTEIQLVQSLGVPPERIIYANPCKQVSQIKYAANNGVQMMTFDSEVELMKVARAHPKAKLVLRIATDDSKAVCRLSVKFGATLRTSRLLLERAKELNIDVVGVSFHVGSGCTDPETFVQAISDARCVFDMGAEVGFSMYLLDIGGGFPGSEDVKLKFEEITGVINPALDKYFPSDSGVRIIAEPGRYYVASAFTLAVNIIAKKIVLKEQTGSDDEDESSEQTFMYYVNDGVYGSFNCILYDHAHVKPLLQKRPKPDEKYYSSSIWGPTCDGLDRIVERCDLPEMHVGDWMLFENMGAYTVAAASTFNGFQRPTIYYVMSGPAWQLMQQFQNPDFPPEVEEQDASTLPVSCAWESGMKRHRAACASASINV

hCNT3 = experiment: hCNT3-mediated uridine uptake in Xenopus laevis oocytes after injection of peptides; type: cell-based, human; settings: low intracellular glucose, no AMG injected
Method: FIG. 9. […] Posttransciptional downregulation of hCNT1 and hCNT3 was measured without injection of AMG. […] One hour later uptake of 5 μM [^3H]uridine was measured.
as §4

[3] = RS1−/− mice; gavage 20 μmol QEP before 40% D-glucose gavage
Method: Blood (2 μL) was collected from the tail vein and analysed using the amperometric glucose oxidase method (glucose meter, ACCU-CHEK Aviva). Blood insulin-Insulin was determined using the rat C-peptide ELISA from Mercodia (Uppsala, Sweden) which is based on the sandwich technique using two monoclonal antibodies directed against two different antigenic determinants on the C-peptide.
(§6) After 2 h the animals were killed, their small intestines were everted and phlorizin inhibited uptake of 10 μM [^14C]AMG Into segments of the everted jejunum was measured (FIG. 12A).

mSGLT1 [4] = settings: RS1−/− mice starved over night; gavage 20 μmol per mouse; after 2 h
Method: as §2, §6

hSGLT1 [5] = experiment: hSGLT1-mediated AMG uptake in Xenopus laevis oocytes 1 h after injection of peptides; type: cell-based, human; settings: for inhibition of SGLT1 mediated transport: 50 nM tripeptide; for down-regulation of hSGLT1 when putrescine was added: intracellular concentration 1 μM; for down-regulation / inhibition of hSGLT1-mediated AMG uptake / IC50: without injection of AMG (intracellular AMG <10 μM); for IC50: read-out: IC50 for down-regulation of hSGLT1-mediated AMG uptake
Method: as §3, §4, §5

hSGLT1 [6] = settings: 30 min; for down-regulation of hSGLT1 mediated AMG uptake: 5 mM D-glucose
Method: Jejunal segments which were routinely dissected during bariatric operations of highly obese patients were stored for 1-3 h on ice in Dulbecco's modified Eagle's medium containing 5 mM D-glucose. The mucosa was isolated and circular areas of the mucosa were dissected using a punching instrument.
as §1, §2
Next, it was investigated which of the QXP-type tripeptides are capable to downregulate hSGLT1 expression in human small intestine in the presence of high glucose. Jejunal samples that were obtained during bariatric surgery of obese patients (males and females with a mean age of 50 years with a mean body mass index of 50) were used. […] A part of the jejumum which is routinely removed during bariatric surgery, was carried to the laboratory using ice-cold culture medium containing 6 mM D-glucose. Part of the mucosa was dissected and identical areas of the mucosa were isolated using a punching instrument. The mucosal pieces were washed with glucose free buffer and incubated for 30 min at 37° C. in tissue culture medium (pH 6.4) containing 5 mM D-glucose and different QXP-type tripeptides. Thereafter the sample were washed two times with PBS buffer (pH 7.4, 37° C.) and incubated for 2 min at 37° C. in PBS (pH 7.4) containing 100 mM sodium and 10 μM [^14C]AMG. The incubation was performed in the absence and presence of 200 μM of the SGLT1 inhibitor phlorizin. Thereafter the samples were washed with ice-cold PBS, the tissue was dissolved, and radioactivity was determined by liquid scintillation counting. The phorizin inhibited AMG uptake was calculated.

hSGLT1 [7] = settings: cited from earlier work
ODC [8] = target: T1, ODC; experiment: Two-hybrid screening and immunocoprecipitation; type: binding; settings: data not shown
Method: (§7) Employing two-hybrid screening and immunocoprecipitation experiments evidence was provided that hRS1-Reg binds to ODC (data not shown). It was shown that the release of SGLT1 containing vesicles from the Golgi apparatus was blocked by specific ODC Inhibitor difluoromethylornithine (DFMO) and that the DFMO effect was blunted when putrescine was added (FIG. 23A). Since hRS1-Reg and DFMO down-regulate hSGLT1 to a similar degree and the down-regulations were not additive, RS1-Reg and ODC employ the same pathway for down-regulation of hSGLT1.

ODC [9] = target: T1, ODC; experiment: ODC activity (released CO2) in HEK293 cells transfected with ODC; type: cell-based; parameters: expressed in transfected cells; host or cells: HEK293
Method: FIG. 23. […] Expressed uptake of 25 μM [^14C]AMG was measured 1 h later as FIG. 2. In A-C mean value±SE of 24-30 oocytes from three independent experiments are presented. D) HEK293 cells were transiently transfected with ODC, ODC plus hRS1-Reg or with ODC plus control vector. […] In D and E mean values±SE from 3-5 independent experiments are indicated. ***P<0.001 for difference to controls measured by ANOVA with posthoc Tukey comparison.
as §7

glutamine-glutamic acid-proline [QEP]
effect on SGLT1 mediated AMG uptake, first series of experiments (mSGLT1 [1]): no effect
uptake of 5 μM [3H]uridine expressed by hCNT1 (hCNT1): not able to inhibit
insulin sensitivity (NZO mice, 5 mM QEP in drinking water): increased
SGLT1-mediated AMG transport into enterocytes and glucose absorption during an OGTT (mouse, in vivo): not decreased
decrease of basal concentration of insulin in the serum (mouse, in vivo): 50%
increase and decrease of serum glucose after gavage with glucose (mouse, in vivo): no effect
increase of serum insulin after gavage with glucose (mouse, in vivo): decreased
inhibition of ODC activity (ODC [2]): about 40%
uptake of 5 μM [3H]uridine expressed by hCNT3 (hCNT3): not able to inhibit
plasma D-glucose 15 min after glucose gavage [3]: significantly reduced
decrease of phlorizin inhibited uptake of 10 μM [14C]AMG into everted jejunum (mSGLT1 [4]): about 30%
affinity at high intracellular glucose higher than affinity of QSP at low intracellular glucose (hSGLT1 [5]): about 1000 times
degree of down-regulation of hSGLT1 (hSGLT1 [5]; 5 pM, intracellular AMG ~0.25 mM): ~45%
inhibition of SGLT1 mediated transport (hSGLT1 [5]; no AMG injected): inhibition
increase of affinity (decrease of IC50) for down-regulation of hSGLT1 at high versus low intracellular AMG (hSGLT1 [5]; intracellular AMG ~250 μM versus low): more than 15000 fold
down-regulation of hSGLT1 when putrescine was added (hSGLT1 [5]): blunted
inhibition of SGLT1 expression (hSGLT1 [5]; with injection of AMG (intracellular AMG ~0.25 mM)): about 50%
down-regulation / inhibition of hSGLT1-mediated AMG uptake (hSGLT1 [5]): about 40%
IC50 (hSGLT1 [5]): 7.9 nM
down-regulation of hSGLT1 mediated AMG uptake (hSGLT1 [6]; 0.1 mM): not statistically significant
down-regulation of hSGLT1 mediated AMG uptake (hSGLT1 [6]; 0.5 mM): not statistically significant
down-regulation of hSGLT1 mediated AMG uptake (hSGLT1 [6]; 1 mM): 40%
SGLT1 mediated AMG uptake at low intracellular glucose (hSGLT1 [6]; 5 mM QEP in PBS without glucose, data not shown): did not decrease
down-regulation of hSGLT1 mediated AMG uptake (hSGLT1 [6]; 15 mM): 75%

glutamine-serine-proline [QSP, reference compound]
decrease of SGLT1 mediated uptake of 10 μM [14C]AMG (mSGLT1 [1]; wildtype mice, 5 mM tripeptide, 30 min, 37° C., 5 mM D-glucose): no significant effect
uptake of 5 μM [3H]uridine expressed by hCNT1 (hCNT1): not able to inhibit
uptake of 5 μM [3H]uridine expressed by hCNT3 (hCNT3): not able to inhibit
inhibition of hSGLT1 expression in oocytes (hSGLT1 [7]; 200 nM QSP, intracellular AMG <10 μM): 40-50%
inhibition of hSGLT1 expression in oocytes after injection of AMG (hSGLT1 [7]; 200 nM QSP, intracellular AMG higher than 250 μM): abolished
down-regulation of hSGLT1 at raised intracellular AMG (hSGLT1 [7]; intracellular AMG higher than 0.1 mM): blunted
decrease of phlorizin inhibited uptake of 10 μM [14C]AMG into everted jejunum (mSGLT1 [4]): no significant effect
inhibition of SGLT1 mediated transport (hSGLT1 [5]; no AMG injected): inhibition
effect on hSGLT1 expression (hSGLT1 [5]; 250 μM intracellular AMG): abolished
IC50 (hSGLT1 [5]): 0.2 nM

PEQ: reverse tripeptide PEQ as control [reference compound]
inhibition of ODC activity (ODC [2]): not

B1: hRS1-Reg: regulatory domain of RS1 from human comprising amino acids 16-98 of hRS1 (SEQ ID No. 6) (protein, listed as Homo sapiens)
chain: SSGQSPDVGNPMSLARSVSASVCPIKPSDSDRIEPKAVKALKASAEFQLNSEKKEHLSLQDLSDHASSADHAPTDQSPAMPMQ
effect of 250 μM intracellular AMG on affinity for down-regulation of hCNT1 (hCNT1; intracellular AMG 250 μM): not altered
uptake of 5 μM [3H]uridine expressed by hCNT1 (hCNT1): decreased
down-regulation of hCNT1 (hCNT1; without injection of AMG): about 50%
IC50 (hCNT1; without injection of AMG, read-out: IC50 for down-regulation of hCNT1-mediated uridine uptake): 126 ± 6 nM
binding to ODC (ODC [8]): binds to ODC
uptake of 5 μM [3H]uridine expressed by hCNT3 (hCNT3): decreased
ODC activity when hRS1-Reg was coexpressed (ODC [9]): decreased
down-regulation of hSGLT1 by hRS1-Reg together with DFMO (hSGLT1 [5]; DFMO intracellular concentration 3 mM): not additive
affinity for down-regulation of hSGLT1 when CK2 is blocked by inhibitor KN93 (hSGLT1 [5]; co-injected KN93, no AMG injected): largely increased
effect of intracellular AMG on the affinity for down-regulation of hSGLT1 after inhibition of CK2 (hSGLT1 [5]; co-injected KN93, with AMG): drastically decreased
down-regulation of hSGLT1 when putrescine was added (hSGLT1 [5]): blunted
down-regulation / inhibition of hSGLT1-mediated AMG uptake (hSGLT1 [5]): about 50%
